Reference: ChEMBL document CHEMBL1201862, “PubChem BioAssay data set” (2004)
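Growth conditions: 96-well plates. Treatment: test compound, 48 hours, 5 concentrations. Analysis: linear interpolation between bracketing concentrations; unreached endpoints set to highest concentration. Here, GI50 denotes the concentration required for 50% inhibition of growth.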 The source made the active and inactive calls. No stated cut-off is given here; in the data, active = GI50 up to about 1.1 µM and inactive = higher.

How the values were obtained:
Assay in all cases: DTP human tumour cell line panel, 48 h
[1] = test system: BT-549
[2] = test system: MCF7
[3] = test system: DU-145
[4] = test system: M19-MEL
[5] = test system: RXF 631
[6] = test system: XF498
[7] = test system: LXFL 529
[8] = test system: KM-20L2
[9] = test system: HOP-18

Measured: GI50

c1ccc(NN/N=N/c2ccc(-c3nc4ccccc4[nH]3)cc2)cc1
inactive: [1] 29.4 µM | [2] 15.3 µM | [3] 42.7 µM

COC(=O)C(Cc1c[nH]c2ccccc12)NP(=O)(O)OCC1OC(n2ccc(N)nc2=O)C(O)C1O (stereo not drawn)
inactive: [1] > 100 µM | [2] > 100 µM | [3] > 100 µM

c1ccc(CSC2(SCc3ccccc3)CCCC2)cc1
inactive: [2] > 10 µM | [3] > 10 µM

O=c1[nH]c(=O)n(C2CC(O)C(CO)O2)cc1C(OCC(F)(F)F)OCC(F)(F)F (stereo not drawn)
inactive: [4] > 100 µM | [5] > 100 µM | [6] > 100 µM | [7] > 100 µM | [8] > 100 µM

Nc1n[c-](N)[n+](=O)c(N)c1NCO
inactive: [1] > 100 µM | [2] > 100 µM | [3] > 100 µM

CC1(C)CC(=O)C2=C(C1)OC1=C(CC(C)(C)CC1=O)C2c1ccccc1[N+](=O)[O-] (stereo not drawn)
inactive: [3] > 100 µM

N#C/N=N/c1cc(Cl)c(/N=N/C#N)cc1Cl
inactive: [4] > 100 µM | [6] > 100 µM | [7] 28.3 µM | [8] > 100 µM

CC(=O)OC(OC(C)=O)n1cc(C=O)c2ccccc21
inactive: [2] 25.9 µM | [3] > 100 µM

COc1cc(C2C(C(=O)O)=C(CO)Oc3cc4c(cc32)OCO4)cc(OC)c1O (stereo not drawn)
inactive: [8] > 100 µM | [9] > 100 µM

C[N+](C)([O-])CCOc1cc2c(c3ccccc13)-c1ccccc1C2=O
inactive: [4] 15.1 µM | [2] 11.7 µM | [6] 16.4 µM | [8] 20.1 µM | [9] 29.1 µM

COc1ccc(/C(C#N)=C/c2ccc(OC)c(OC)c2)cc1
inactive: [2] > 100 µM | [3] > 100 µM

C[Si](C)(C)/C=C/CN1C(=O)CCC1=O
inactive: [4] > 100 µM | [6] > 100 µM | [7] > 100 µM | [8] > 100 µM | [9] 40.1 µM

COc1nc(SC)nc2c1cnn2C1OC(C(O)CO)C(OC)C1O (stereo not drawn)
inactive: [4] > 75.5 µM | [2] > 62.4 µM | [6] > 100 µM | [8] > 85.9 µM | [9] > 100 µM

CN(/N=C1\C(=O)Nc2ccccc21)c1ccccc1
inactive: [2] 15.3 µM | [3] > 100 µM

COc1ccc2nc3cc(Cl)ccc3c(Sc3ccc(N)cc3)c2c1
inactive: [4] 7.62 µM | [5] 11 µM | [6] 14.2 µM | [7] 4.32 µM | [8] 4.59 µM | [9] 12.2 µM

O=[N+]([O-])c1ccc2[nH]c3c(-c4ccccc4)nccc3c2c1
inactive: [4] 25.9 µM | [2] 24.8 µM | [6] 29.4 µM | [8] 27.6 µM | [9] 18 µM

CN(C)C(=S)/N=c1\ssc(=S)n1C
inactive: [4] > 100 µM | [5] > 100 µM | [6] > 100 µM | [7] > 100 µM | [8] > 100 µM | [9] > 100 µM

CN(C)CCNC(=O)c1cccc2ccc(-c3ccc(F)cc3)nc12
inactive: [4] 4.33 µM | [2] 3.56 µM | [6] 2.94 µM | [8] 4.22 µM | [9] 17.4 µM

CC1(C)OP23(NC(=O)OC2(C(F)(F)F)c2ccccc2O3)OC1(C)C (stereo not drawn)
inactive: [4] > 100 µM | [6] > 100 µM | [7] > 100 µM | [9] > 100 µM

N#Cc1c(=O)c2cccnc2n2c1[nH]c1ccccc12
inactive: [1] 57.3 µM | [2] > 100 µM | [3] > 100 µM

COC(=O)c1cn(CC(O)CCl)nn1 (stereo not drawn)
inactive: [1] > 100 µM | [2] > 100 µM | [3] > 100 µM

c1ccc(C(NC2=NCCO2)c2ccccc2)cc1
inactive: [2] 6 µM | [3] > 10 µM

CC(=O)OCC1OC(n2c3c(c(-c4ccco4)c(C#N)c2=S)CCC3)C(OC(C)=O)C(OC(C)=O)C1OC(C)=O (stereo not drawn)
inactive: [1] 43.9 µM | [2] 63.8 µM | [3] > 100 µM

O=C(NN1C(=O)CS(=O)(=O)C1c1ccc(Cl)c(Cl)c1)c1ccncc1 (stereo not drawn)
inactive: [4] > 100 µM | [2] 98.2 µM | [6] > 100 µM | [8] > 91.4 µM | [9] > 100 µM

CCCNC(=S)N/C=C1/C(=O)Oc2ccccc2C1=O
inactive: [1] > 100 µM | [2] > 100 µM | [3] 54.1 µM

Cc1cnc(/N=c2\sc(C)cn2-c2ncc(C)s2)s1
inactive: [1] > 100 µM | [2] > 100 µM | [3] > 100 µM

CC(=O)Oc1ccccc1C(=O)Nc1ncc([N+](=O)[O-])s1 [NITAZOXANIDE]
inactive: [1] 14.4 µM | [2] 10.2 µM | [3] 20.1 µM

Cc1ccc(Nc2nc3ccccc3nc2NS(=O)(=O)c2ccc(N)cc2)cc1
inactive: [1] 5.35 µM | [2] 45.2 µM | [3] 97.9 µM

O=c1[nH]nc(Cc2ccc(Cl)cc2)n1CCO
inactive: [1] > 100 µM | [2] > 100 µM | [3] > 100 µM

ClCC1(CCl)COC1
inactive: [2] > 100 µM | [3] > 100 µM
